{
  "source": "patent US8143316B2",
  "about": "“Method for treating peripheral vascular diseases” (Sucampo AG, priority 2005, dated 2012)",
  "key": {"[1]": {"tested_on": "platelet-rich plasma (PRP)", "test": "ADP-induced platelet aggregation in rabbit platelet-rich plasma", "format": "cell-based", "conditions": "for Maximum aggregation: ADP-induced, mean ± S.E. of 3 rabbits; for Inhibition of platelet aggregation: vs vehicle control (100%)", "procedure": "Four months old male Kbs: J.W. rabbits were housed in aluminum cages in an animal room controlled for roomtemperature (23-24° C.), relative humidity (55-74%), ventilation rate (10-20 times/hour) and 12-hour light/dark cycle (lighting: 7:00 a.m.-7:00 p.m.). The animals were feeded with solid diet for rabbits (120 g/animal/day) and water ad libitum from automatic eatering system. The animals were subjected to at least 6 days of quarantine and acclimation. During the period, their body weight measurements and general sign observations were conducted, and the animals judged to be in good health were used in this study.\nA cannula was inserted into the common carotid artery of the rabbit under inhalation anesthesia of isoflurane. Nine parts of the blood samples obtained through the cannula were mixed with 1 part of 3.8 w/v % sodium citrate. After centrifugation of the blood samples for 10 min at 1,000 rpm, platelet-rich plasma (PRP) was collected from the top layer. Then the bottom layer was further centrifuged for 15 min at 3,000 rpm, and platelet-poor plasma (PPP) was collected from the top layer. The platelet counts of the PRP and PPP fractions were performed using an ADVIA120 Hematology system (ADVIA120, Bayer Medical Ltd.). The PRP fraction was diluted with the PPP fraction so that the platelet counts was adjusted to approximately 30×10^4 cells/μL. Thus obtained PRP (0.178 mL) was put into a cuvet, and pre-incubated on a warm bath at 37° C. for about 5 minutes. Test solution (0.022 mL) containing prostaglandin E1 or Compound A was added to the PRP. One minute later, 25 μM ADP solution (0.022 mL) was added and the degree of platelet aggregation was measured using a platelet aggregation measuring device (NBS hematolaser, Nikko Bioscience Inc.). For each test solution, a duplicate test was performed on the blood samples from 3 animals. Inhibition rate (%) was evaluated by comparing the aggregation in the test substance group with that in the vehicle control group (100%)."}, "[2]": {"tested_on": "Male Crl: CD(SD) rats", "test": "Cutaneous tissue blood flow in anesthetized rats", "format": "in vivo, rat", "procedure": "Male Crl: CD(SD) rats were anesthetized by an intraperitoneal injection of thiobutabarbital sodium. Body temperature (rectal temperature) of the animals was maintained at approximately 37° C. throughout the experiment with a heating pad. After depilating the instep of the right hind limb with a depilatory cream, the cutaneous tissue blood flow CTBF) was measured before and 30 minutes after intravenous administration of Compound C (11-deoxy-13,14-dihyrdo-16,16-difluoro-PGE1) or the vehicle using a non-contact type laser Doppler flowmeter (FLO-N1, Omegawave Inc., Japan). The blood pressure and heart rate were also monitored."}, "[3]": {"tested_on": "Male Wistar rats", "test": "Decreased peripheral microcirculation (cutaneous tissue blood flow) induced by ET-1 infusion in rats", "format": "in vivo, rat", "conditions": "100 μg/kg i.v.; for blood pressure: ET-1 infused rats; for cutaneous tissue blood flow: flow decreased by ET-1 infusion, up to 60 min after administration, vs vehicle", "procedure": "Male Wistar rats (7-week-old) were used in this study. Animals were anesthetized by intraperitoneal injection of thiobutabarbital sodium (80 mg/kg). Body temperature (rectal temperature) of the animals was maintained at approximately 37° C. throughout the experiment with a heating pad. After depilating the instep of the right hind limb with a depilatory cream, the cutaneous tissue blood flow was measured continuously using a non-contact type laser Doppler flowmeter (FLO-N1, Omegawave Inc., Japan). For measurements of mean arterial blood pressure, a polyethylene catheter placed in the left femoral artery was connected to a pressure transducer (TP-400T, Nihon Koden Inc., Japan) coupled to an amplifier (AP-641G, Nihon Koden Inc., Japan). The cutaneous tissue blood flow and blood pressure were recorded and analyzed using a computer system (HEM Ver. 3.5, Notocord Systems, France). Endothelin-1 (ET-1) was infused into the femoral artery at a rate of 200 pmol/kg/min with a syringe pump via the polyethylene catheter inserted retrogradely into the caudal epigastric artery branched from the right femoral artery for 15 minutes. Infusion rate of ET-1 was decreased to 20 pmol/kg/min after the termination of 200 pmol/kg/min infusion, and the decreased amount of ET-1 infusion was kept until the end of this study. The cutaneous tissue blood flow was decreased by the infusion of ET-1 into the femoral artery. When the cutaneous tissue blood flow was reached a new steady level (25 to 50 minutes after starting ET-1 infusion), vehicle or each test compound solution was administered to the animals over 2 minutes in a volume of 1 mL/kg via the polyethylene catheter placed in the left femoral vein. The administered amount of the test compound was 100 μg/kg. The cutaneous tissue blood flow and blood pressure were measured continuously and recorded every 5 minutes for 60 minutes after the administration of vehicle or each test solution."}, "[4]": {"tested_on": "streptozotocin-induced diabetic rats", "test": "Cutaneous tissue blood flow in streptozotocin-induced diabetic rats", "format": "in vivo, rat", "procedure": "Diabetes was induced by single intravenous injection of 50 mg/kg streptozotocin (STZ) in 7-week-old male Crl: CD(SD) rats. Animals with plasma glucose levels 400 mg/dL or more on day 19 after the STZ treatment were used in this study. Three weeks after the STZ injection, animals were anesthetized by an intraperitoneal injection of thiobutabarbital sodium. Body temperature (rectal temperature) of the animals was maintained at approximately 37° C. throughout the experiment with a heating pad After depilating the instep of the right hind limb with a depilatory cream, the cutaneous tissue blood flow (CTBF) was measured continuously using a non-contact type laser Doppler flowmeter (FLO-N1, Omegawave Inc., Japan). The blood pressure and heart rate were simultaneously monitored. Compound A or the vehicle was intravenously administered to the animals over 10 min."}, "[5]": {"tested_on": "Male GK/Jcl rats", "test": "Cutaneous tissue blood flow in spontaneous diabetes rats", "format": "in vivo, rat", "procedure": "Male GK/Jcl rats, a spontaneous model of non-insulin-dependent diabetes, were anesthetized by an intraperitoneal injection of thiobutabarbital sodium. Body temperature (rectal temperature) of the animals was maintained at approximately 37° C. throughout the experiment with a heating pad. After depilating the instep of the right hind limb with a depilatory cream, the cutaneous tissue blood flow (CTBF) was measured before (base line) and 20 minutes after intravenous administration of Compound A or the vehicle using a non-contact type laser Doppler flowmeter (FLO-N1, Omegawave Inc., Japan). Data was expressed as % compared with the base line cutaneous tissue blood flow."}, "[6]": {"tested_on": "male Japanese white rabbits", "test": "Intraocular pressure after topical eye application in rabbits", "format": "in vivo, rabbit", "conditions": "0.0016% topical", "procedure": "Eight male Japanese white rabbits (Std: JW/CSK) weighing approximately 2.5-3.5 kg were used in this study. The same eye of each animal was treated with the test compounds and the other eye was with the vehicle consistently throughout the study with a washout period between each treatment. Thirty microliters of each test compound solution was applied topically to one eye of each animal using a micropipette (Pipetman, Gilson, Inc., France). The contralateral control eye received an equal volume of the vehicle. The animals were dosed at approximately the same time each morning. After the animals were restrained in a holder, one drop of topical anesthetic (0.4% oxybuprocaine hydrochloride) was applied to both eyes and the IOP was measured with an applanation pneumatonometer (Model 30 Classic™, Mentor O & O, Inc., USA) before dosing, and at 1, 2, 4, 6, and 8 hours after dosing."}},
  "data": [
    {"compound": "CCCCC[C@H](O)/C=C/[C@H]1[C@H](O)CC(=O)[C@@H]1CCCCCCC(=O)O", "note": "[PGE1, prostaglandin E1, reference compound]", "values": [
      {"measurement": "Maximum aggregation", "setting": "[1]; 1 × 10^−6 g/mL", "result": "4.0 ± 0.7", "unit": "%"},
      {"measurement": "Inhibition of platelet aggregation", "setting": "[1]; 1 × 10^−6 g/mL", "result": 89.0, "unit": "%"},
      {"measurement": "Maximum aggregation", "setting": "[1]; 1 × 10^−7 g/mL", "result": "3.2 ± 0.6", "unit": "%"},
      {"measurement": "Inhibition of platelet aggregation", "setting": "[1]; 1 × 10^−7 g/mL", "result": 91.2, "unit": "%"},
      {"measurement": "Maximum aggregation", "setting": "[1]; 1 × 10^−8 g/mL", "result": "28.7 ± 3.6", "unit": "%"},
      {"measurement": "Inhibition of platelet aggregation", "setting": "[1]; 1 × 10^−8 g/mL", "result": 20.9, "unit": "%"}
    ]},
    {"compound": "CCCCC(F)(F)C(O)CCC1CCC(=O)C1CCCCCCC(=O)O", "note": "(centres unmarked) [Compound C, 11-deoxy-13,14-dihyrdo-16,16-difluoro-PGE1]", "values": [
      {"measurement": "Cutaneous Tissue Blood Flow, After administration", "setting": "[2]; 10 μg/kg i.v., 30 minutes after administration, mean ± S.E., n=5", "result": "13.0 ± 0.2", "unit": "mL/min/100 g tissue"},
      {"measurement": "Cutaneous Tissue Blood Flow, Before administration", "setting": "[2]; 10 μg/kg i.v., before administration (baseline), mean ± S.E., n=5", "result": "11.6 ± 0.3", "unit": "mL/min/100 g tissue"},
      {"measurement": "blood pressure", "setting": "[2]; i.v.", "result": "no effects"},
      {"measurement": "heart rate", "setting": "[2]; i.v.", "result": "no effects"},
      {"measurement": "cutaneous tissue blood flow (in words)", "setting": "[2]; i.v., compared with vehicle treatment", "result": "significantly increased"}
    ]},
    {"compound": "CCCCC(F)(F)C(=O)CCC1CCC(=O)C1CCCCCCC(=O)OC(C)C", "note": "(centres unmarked) [Compound B, 11-deoxy-13,14-dihydro-15-keto-16,16-difluoro-PGE1 isopropyl ester]", "values": [
      {"measurement": "blood pressure", "setting": "[3]", "result": "no significant effect"},
      {"measurement": "cutaneous tissue blood flow", "setting": "[3]", "result": "significantly increased"}
    ]},
    {"compound": "CCCCC(F)(F)C(=O)CCC1CCC(=O)C1CCCCCCC(=O)O", "note": "(centres unmarked) [Compound A, 11-deoxy-13,14-dihydro-15-keto-16,16-difluoro-PGE1]", "values": [
      {"measurement": "Cutaneous Tissue Blood Flow, Pre", "setting": "[4]; 30 μg/kg i.v. over 10 min, before dosing (baseline), mean ± S.E., n=5", "result": "4.8 ± 0.5", "unit": "mL/min/100 g tissue"},
      {"measurement": "blood pressure (BP)", "setting": "[4]; STZ diabetic rats, i.v.", "result": "no effects"},
      {"measurement": "heart rate", "setting": "[4]; STZ diabetic rats, i.v.", "result": "no effects"},
      {"measurement": "cutaneous tissue blood flow (in words)", "setting": "[4]; STZ diabetic rats, i.v., compared with vehicle", "result": "significantly increased"},
      {"measurement": "Maximum aggregation", "setting": "[1]; 1 × 10^−5 g/mL", "result": "36.8 ± 3.1", "unit": "%"},
      {"measurement": "Inhibition of platelet aggregation", "setting": "[1]; 1 × 10^−5 g/mL", "result": "−1.4", "unit": "%"},
      {"measurement": "Maximum aggregation", "setting": "[1]; 1 × 10^−6 g/mL", "result": "36.2 ± 4.0", "unit": "%"},
      {"measurement": "Inhibition of platelet aggregation", "setting": "[1]; 1 × 10^−6 g/mL", "result": 0.3, "unit": "%"},
      {"measurement": "Maximum aggregation", "setting": "[1]; 1 × 10^−7 g/mL", "result": "35.2 ± 3.9", "unit": "%"},
      {"measurement": "Inhibition of platelet aggregation", "setting": "[1]; 1 × 10^−7 g/mL", "result": 3.0, "unit": "%"},
      {"measurement": "effect on platelet aggregation (in words)", "setting": "[1]; up to the highest concentration (1×10^−5 g/mL) tested", "result": "no effect"},
      {"measurement": "Cutaneous Tissue Blood Flow compared with the base line", "setting": "[5]; 20 μg/kg i.v., 20 minutes after administration, mean ± S.E., n=5", "result": "122 ± 1", "unit": "%"},
      {"measurement": "cutaneous tissue blood flow (in words)", "setting": "[5]; spontaneous diabetes rats, i.v., compared with vehicle", "result": "significantly increased"},
      {"measurement": "blood pressure", "setting": "[3]", "result": "no significant effect"},
      {"measurement": "cutaneous tissue blood flow", "setting": "[3]", "result": "significantly increased"},
      {"measurement": "IOP, 1 hr after administration", "setting": "[6]; 30 μL, 1 hr, mean ± SE, n=8", "result": "13.1 ± 0.6", "unit": "mmHg"},
      {"measurement": "IOP, 2 hr after administration", "setting": "[6]; 30 μL, 2 hr, mean ± SE, n=8", "result": "14.5 ± 0.6", "unit": "mmHg"},
      {"measurement": "IOP, 4 hr after administration", "setting": "[6]; 30 μL, 4 hr, mean ± SE, n=8", "result": "13.8 ± 0.8", "unit": "mmHg"},
      {"measurement": "IOP, 6 hr after administration", "setting": "[6]; 30 μL, 6 hr, mean ± SE, n=8", "result": "15.1 ± 1.0", "unit": "mmHg"},
      {"measurement": "IOP, 8 hr after administration", "setting": "[6]; 30 μL, 8 hr, mean ± SE, n=8", "result": "17.5 ± 1.3", "unit": "mmHg"},
      {"measurement": "IOP, Pre", "setting": "[6]; 30 μL, before dosing (baseline), mean ± SE, n=8", "result": "17.0 ± 0.8", "unit": "mmHg"},
      {"measurement": "intraocular pressure (in words)", "setting": "[6]; vs vehicle-treated contralateral eye", "result": "significantly lowered"}
    ]}
  ]
}
